Structures can show the parent of a compound that is named as a salt.
Experiments:
[1] = system: rgPR8(H275Y), A/Puerto Rico/8/1934 with the H275Y mutation in NA
[2] = system: A/Korea/2785/2009 (H1N1) with the H275Y mutation in NA (KR2785)
[3] = system: rgA/Korea/09/2009Δ53–60 with the H275Y mutation in NA (rgKR09)
[4] = system: rgA/Korea/09/2009Δ53–60(H275Y), A/H1N1(H275Y); set-up: species or system BALB/c mice; details: mouse, in vivo, po, 10 mg/kg

What does the source list for `NC12CC3CC(CC(C3)C1)C2` [AMT, Amantadine, reference compound]?
EC50 [1]: > 100 µM; EC50 [2]: > 100 µM; EC50 [3]: > 100 µM

For `CCC(CC)O[C@@H]1C=C(C(=O)O)C[C@H](NC(=N)N)[C@H]1NC(C)=O` [GOC, guanidino oseltamivir carboxylate, reference compound], which EC50 [1] is on record?
Its EC50 is 0.09 ± 0.01 µM.

And the “resistance factor (RF), ratio of EC50 against rgPR8(H275Y) to wild-type rgPR8” value [1]?
Its value is 18.0.

What about the EC50 [2] of the same compound?
The EC50 was 0.78 ± 0.01 µM.

What about the EC50 [3] of the same compound?
Its EC50 is 0.11 ± 0.01 µM.

For `CCC(CC)O[C@@H]1C=C(C(=O)O)C[C@H](NC(=N)N)[C@H]1NC(C)=O` [GOC·TFA, guanidino oseltamivir carboxylate], which survival rate [4] is on record?
Its survival rate is “all mice were eventually dead”.

With `CCC(CC)O[C@@H]1C=C(C(=O)O)C[C@H](N)[C@H]1NC(C)=O` [OSC, oseltamivir carboxylate, reference compound] as the compound, how does the EC50 [1] read?
The EC50 was 13.7 ± 2.7 µM.

What about the “resistance factor (RF), ratio of EC50 against rgPR8(H275Y) to wild-type rgPR8” value [1] of the same compound?
The value was 274.

What about the EC50 [2] of the same compound?
The EC50 was 56.61 ± 0.3 µM.

What about the EC50 [3] of the same compound?
Its EC50 is 25.9 ± 0.65 µM.

With `CCCCC1CC(=O)N(C(=N[C@H]2CC(C(=O)O)=C[C@@H](OC(CC)CC)[C@@H]2NC(C)=O)N2C(=O)CC(CCCC)C2=O)C1=O` (stereo partly drawn) [OSC-GCDI(B)] as the compound, how does the EC50 [1] read?
The EC50 was 3.41 ± 0.01 µM.

And the EC50 [2]?
Its EC50 is 17.6 ± 2.9 µM.

And the EC50 [3]?
The EC50 was 12.9 ± 0.65 µM.

`CCC(CC)O[C@@H]1C=C(C(=O)O)C[C@H](N=C(N2C(=O)[C@H]3CCCC[C@H]3C2=O)N2C(=O)[C@H]3CCCC[C@H]3C2=O)[C@H]1NC(C)=O` [OSC-GCDI(C)] was tested. Which EC50 [1] did it give?
Its EC50 is 0.49 ± 0.01 µM.

What about the EC50 [2] of the same compound?
The EC50 was 5.91 ± 0.85 µM.

And the EC50 [3]?
Its EC50 is 3.7 ± 0.5 µM.

What does the source list for `CCC(CC)O[C@@H]1C=C(C(=O)O)C[C@H](N=C(N2C(=O)C3CCC(C)CC3C2=O)N2C(=O)C3CCC(C)CC3C2=O)[C@H]1NC(C)=O` (stereo partly drawn) [OSC-GCDI(CM)]?
EC50 [1]: 1.2 ± 0.05 µM; EC50 [2]: 14 ± 5.15 µM; EC50 [3]: 4.43 ± 0.25 µM

Which EC50 [1] does the source give for `CCC(CC)O[C@@H]1C=C(C(=O)O)C[C@H](N=C(N2C(=O)[C@H]3CC=CC[C@H]3C2=O)N2C(=O)[C@H]3CC=CC[C@H]3C2=O)[C@H]1NC(C)=O` [OSC-GCDI(Ce)] here?
Its EC50 is 1.9 ± 0.1 µM.

And the EC50 [2]?
The EC50 was 13.22 ± 0.1 µM.

And the EC50 [3]?
Its EC50 is 5.21 ± 0.02 µM.

Which results are given for `CCC(CC)O[C@@H]1C=C(C(=O)O)C[C@H](N=C(N2C(=O)CC(C)(C)C2=O)N2C(=O)CC(C)(C)C2=O)[C@H]1NC(C)=O` [OSC-GCDI(D)]?
EC50 [1]: 1.52 ± 0.2 µM; EC50 [2]: 9.25 ± 2.4 µM; EC50 [3]: 4.37 ± 1.1 µM

What does the source list for `CCC(CC)O[C@@H]1C=C(C(=O)O)C[C@H](N=C(N2C(=O)CC(C)C2=O)N2C(=O)CC(C)C2=O)[C@H]1NC(C)=O` (stereo partly drawn) [OSC-GCDI(M)]?
EC50 [1]: 0.74 ± 0.05 µM; EC50 [2]: 4.61 ± 0.35 µM; EC50 [3]: 1.96 ± 0.15 µM

Which EC50 [1] does the source give for `CCC(CC)O[C@@H]1C=C(C(=O)O)C[C@H](N=C(N2C(=O)c3ccccc3C2=O)N2C(=O)c3ccccc3C2=O)[C@H]1NC(C)=O` [OSC-GCDI(P)] here?
Its EC50 is 0.48 ± 0.01 µM.

And the EC50 [2]?
Its EC50 is 4.61 ± 0.35 µM.

What about the EC50 [3] of the same compound?
The EC50 was 4.61 ± 0.05 µM.

Which results are given for `CCC(CC)O[C@@H]1C=C(C(=O)O)C[C@H](N=C(N2C(=O)CCC2=O)N2C(=O)CCC2=O)[C@H]1NC(C)=O` [OSC-GCDI(S)]?
EC50 [1]: 0.99 ± 0.01 µM; EC50 [2]: 8.55 ± 2.15 µM; EC50 [3]: 2.2 ± 0.1 µM

How did the EC50 [1] turn out when `NC(=O)c1ncn([C@@H]2O[C@H](CO)[C@@H](O)[C@H]2O)n1` [RBV, Ribavirin, reference compound] was run?
Its EC50 is 16.4 ± 0.45 µM.

And the EC50 [2]?
Its EC50 is 18.3 ± 1.3 µM.

And the EC50 [3]?
Its EC50 is 15.79 ± 0.15 µM.

Reference: paper PMC11363325, “A Novel Prodrug Strategy Based on Reversibly Degradable Guanidine Imides for High Oral Bioavailability and Prolonged Pharmacokinetics of Broad-Spectrum Anti-influenza Agents” (ACS Central Science, 2024)
